“Also recorded” adds a separate entry of the source.
Columns and labels:
[1] = tested on: male Wistar rats; assay: Exploratory Activity Test (vertical exploration) after unilateral 6-OHDA lesion; type: in vivo; settings: 6-OHDA damage, after 7 days of treatment, statistically different at 40 mg/Kg versus untreated injured animals
Method: (§1) Male adult Wistar rats were used, weighing between 200 and 250 grams at the start of the experiment, coming from the National Laboratory Animal Production Center (CENPALAB), Havana, Cuba. The animals were kept at the Center for the Research and Development of Medicines (CIDEM) in plastic translucent boxes at an average temperature of 23° C. (22±2° C.), with food and water supplies ad libitum and 12-hour periods of light and dark.
JM-20 was administered in 3 different doses: 10, 20 and 40 mg/Kg, 24 hours after inducing damage and on a daily basis for 7 days. The compound was prepared in carboxymethylcellulose (CMC) at 0.05%, intragastrically with a cannula. […]
In order to assess the vertical exploratory activity of animals we used the Exploratory Activity Test; the animal is placed in a clear Plexiglas cubicle, 41×41×33 (h) cm, (UGO BASILE, MultipleActivityCage Cat. No. 47420. Data output is managed by 52050-04 Data Acquisition Software Package (Windows® based). The cubicle is supported on a robust base made of black Plexiglas that has 4 vertical steel bars with steel grooves so that the horizontal/vertical detection systems are correctly affixed. The sensors are IR light emission systems capable of registering animal movements by shapes, or rather vertical exploration. Data is monitored on a computer. […]

[2] = tested on: OF-1 mice; assay: Memory loss induced by beta amyloid 25-35 peptide oligomers (in vivo); settings: JM-20 administered 7 days after beta amyloid administration; 10 and 30 mg/kg orally for 10 days; Aβ 100 pmol i.c.v.
Method: For the different studies JM-20 was suspended in carboxymethyl cellulose (CMC) 0.05% and administered orally. Scopolamine bromide was dissolved in the 0.9% saline solution and administered intraperitoneally (1 mg/kg, 4 mL/Kg of weight). Aluminum chloride was dissolved in common drinking water for the experimental subjects and administered orally in a 500 mg/Kg peso dose, in chronic form for one month and while behavioral studies were conducted. Beta amyloid peptides (25-35) were oligomerized and made soluble according to the manufacturer's norms and administered via intracerebroventricular means at 100 pmols in 5 uL, into the right cerebral hemisphere.
In vivo experiments corresponding to the scopolamine and aluminum model used Wistar rats (males, 230-260 g), while in vivo experiments corresponding to the beta amyloid model used OF-1 mice (males, 25-30 g). All the animals came from the National Laboratory Animal Production Center (CENPALAB, Mayabeque, Cuba) and after their arrival they underwent adaptation to laboratory conditions for 7 days. […]
Subsequently we conducted in vivo studies on OF-1 mice. We assessed the effect of JM-20 on memory loss induced by beta amyloid oligomers administered 7 days after the intracerebroventricular administration of Aβ (100 pmols) during 10 days, orally in 10 and 30 mg/kg weight doses. […]

[3] = tested on: CCI rats; assay: Histology of sciatic nerve (Wallerian degeneration) in chronic constriction injury (CCI) model; type: in vivo; settings: JM-20 20 mg/Kg p.o., repeated doses for 7 days starting Day 7 post-CCI, 14 days after surgery, H/E and luxol fast blue
Description: We studied the effect of JM-20 on the chronic constriction of the sciatic nerve model (CCI), an NP model (Bennett M I, Rayment C, Hjermstad M, Aass N, Caraceni A, Kaasa S. Prevalence and aetiology of neuropathic pain in cancer patients: A systematic review. Pain 2012; 153:359-365) Results are presented in FIG. 19-23.
A, B and C show the longitudinal section of the sciatic nerve 5 mm distal to the lesion on CCI Sham rats, CCI treated with JM-20 and treated with vehicle respectively (H/E coloration). We can observe the increase in cellularity in CCI animals relatively compared with sham operated animals as the result of the proliferation of Schawann cells and the infiltration of macrophages and the loss of an orderly alignment of axons associated to their myelin sheathes as compared to the sham-CCI. The arrow indicates one of the many digestion chambers of Schawann cells containing a myelin ovoid (reddish oval mass). D, E, F show sections from the same animals but they are colored by the luxol fast blue (LFB) technique, a specific technique for myelin tincture.

[4] = tested on: rats; assay: 5% formalin test (tonic pain), Phase II; type: in vivo; settings: Phase II (15-45 min), flumazenil pre-treatment study
Method: We studied the effect of JM-20 (10, 20, 40 mg/Kg, p.o) on behaviors related to pain in a tonic pain model (5% formalin test) in rats. (Dubuisson D, Dennis S G. The formalin test: a quantitative study of the analgesic effects of morphine, meperidine and brain-stem stimulation in rats and cats. Pain 1977; 4:161-174).
Each column represents the reaction time of 6-10 animals per group as the mean±EEM, * P<0.05, ***P<0.001 represents the statistical differences between treated and control groups (only vehicle), ****P<0.05 represents statistical differences between groups treated with diazepam in the presence or absence of flumazenil, 1p<0.05 represents statistical differences between groups treated with JM-20 in the presence or absence of flumazenyl.

[5] = tested on: male Wistar rats; assay: Cylinder test after unilateral 6-OHDA lesion of the substantia nigra pars compacta; type: in vivo; settings: 6-OHDA damage, after 7 days of treatment
Method: as §1
JM-20 was administered in 3 different doses: 10, 20 and 40 mg/Kg, 24 hours after inducing damage and on a daily basis for 7 days. The compound was prepared in carboxymethylcellulose (CMC) at 0.05%, intragastrically with a cannula. There were 5 experimentation groups: Group I (vehicle/saline with ascorbic acid, n=6), Group II (animals affected with 6-OHDA, n=8), Group III (animals affected with 6-OHDA and co-treated with 10 mg/Kg JM-20, n=8), Group IV (animals affected with 6-OHDA and co-treated with 20 mg/Kg JM-20, n=8) and Group V (animals affected with 6-OHDA and co-treated with 40 mg/Kg JM-20 n=8). All behavioral studies were run at 7 days.
For the purpose of proceeding to unilateral dopaminergic denervation of the striate body (right hemisphere) the rats were anesthetized with Chloral Hydrate [0.4 g/kg weight, i.p., Merck (Darmstadt, Germany)] and placed into a frame designed for stereotactic surgery (Stoelting Instruments, USA.), where they were injected in the right substantia nigra pars compacta with saline solution neurotoxin 6-OHDA-HBr (8 μg/3 μL, also containing 0.2 mg/ml of ascorbic acid as an antioxidant) (Pavón Fuentes, Nancy (2007) Efecto de la inactivación de los receptores dopaminérgicos D2 y de la manipulación del núcleo subtalámico sobre la conducta motora en modelos de hemiparkinsonismo en roedores. Doctor en Ciencias de una Especialidad, Universidad de Ciencias Médicas de La Habana). Coordinates were calculated taking Bregma as a point of reference in accordance with the Paxinos and Watson Atlas [Paxinos, G. and Watson, C., The rat brain in stereotaxic coordenates. 2nd the Academic Press. New York, 1986], referred to in Table 1. […]

Compound: CCOC(=O)C1=C(C)NC2=C(C=Nc3ccccc3N2)C1c1ccccc1[N+](=O)[O-] (stereo not shown) [JM-20, 3-etoxicarbonil-2-methyl-4-(2-nitrofeenil)-4,11-dihydro-1H-pirido[2,3-b][1,5] benzodiacepine]
- vertical exploration [1]: increased their vertical exploration
- memory loss induced by beta amyloid 25-35 peptide oligomers [2]: reverts memory loss
- histological changes induced by CCI (Wallerian degeneration): nerve fiber disorganization, cell number, myelin sheath degradation [3]: reduced disorganization of the nerve fibers induced by CCI; also recorded: Reduction in CCI-induced nerve fiber disruption and cell count increase and myelin sheath degradation
- effect on Phase II of the 5% formalin test [4]: antihypernociceptive effect
- use of the paw contralateral to the damage ([5]; JM-20 40 and 20 mg/Kg): increased use of the paw contralateral to the damage; also recorded: increased use of contralateral leg
- use of the ipsilateral paw ([5]; both doses of JM-20 (40 and 20 mg/Kg), normal values): ~50%
- % of asymmetry (cylinder test), motor damage ([5]; versus injured animals without treatment): diminished motor damage; also recorded: decrease in motor damage

— patent US11098039B2, “Benzodiazepine product with activity on the central nervous and vascular systems” (UNIVERSIDAD DE LA HABANA, priority 2016, dated 2021)
